How the values were obtained:
PCNA and Stathmin genes = assay: In vivo renal ischemia-reperfusion: real-time RT-PCR of regeneration markers PCNA and Stathmin in kidney; design: species or system Swiss strain mice; conditions: FIG. 1
Protocol: (§1) Swiss strain mice were used, males with an approximate weight of 25-30 g (Charles River, France). All the procedures were performed under the supervision of the ethics committee of the Institute for Biomedical Research of Barcelona (CSIC) and followed European Union guidelines. The environmental conditions were kept constant, the temperature was 21-22° C., the relative humidity was 70% and the alternative cycles of light/darkness were 12 h. The animals were fed a standard diet of AO4 fodder (Panlab, Barcelona) and water from the Barcelona supply network ad libitum.
The animals were anaesthesised with Isoflurane, placed in the supine position, and their body temperature was maintained at between 36° C. and 37° C. After performing a median laparotomy to access the kidney, carefully putting aside the intestinal packet, bilateral ischemia was induced by clamping both renal arterio-venous pedicles with a non-traumatic microvascular clamp for 45 minutes. Subsequently, the reperfusion period was started, with removal of the clamp, and it was visually verified by observing the return of the blood flow to the kidney. Subsequently, the animal was sutured and administered subcutaneous Buprex (4.16 μg/100 g of weight).
Animals subjected to a sham operation were used as controls. During the entire operation process, the animals were well hydrated and the body temperature was maintained at about 37° C. During the reperfusion time, the animals were stabulated under the control of a veterinary. […]
(§2) The RNA of the kidney samples was extracted by means of the TRIzol reagent in accordance with the manufacturer's instructions (Invitrogen, Barcelona). […] The RNA concentrations were calculated by determining the absorbance at 260 nm. The integrity of the RNA thus obtained was examined by analysing the 18s and 28s ribosomal RNA bands detected and analysed in the Bioanalyzer of the Clinical Hospital of Barcelona (Agilent).
The expression of the analysed genes was measured by means of real-time quantitative RT-PCR normalised with the glyceraldehyde 3-phosphate dehydrogenase (GAPDH) housekeeping gene. […]

caspase 3 = assay: In vivo renal ischemia-reperfusion: apoptosis evaluated by activity of caspase 3 in renal tissue; design: species or system Swiss strain mice; conditions: FIG. 2
Protocol: as §1
(§3) The animals were anaesthesised with Isoflurane, placed in the supine position, and their body temperature was maintained at between 36° C. and 37° C. […]
(§4) The activity of caspase-3 was determined by measuring the proteolysis of the specific substrate (N-acetyl-Asp-Glu-Val-Asp-7-amino-4-methyl coumarin (DEVD-AMC; Biomol, Plymouth Meeting, Pa.). The renal tissue samples were homogenised and sonicated in the assay buffer (50 mM HEPES, 10% sucrose, 0.1% CHAPS, 5 mM GSSG, 5 mM DTT). The supernatants of the samples were incubated in this buffer, whereto DEVD-AMC at a concentration of 50 μM was added. The AMC released was quantified for 1 hour and a half at 37° C. by fluorospectrophotometry, using 380 nm of excitation and measuring the emission at 450 nm.

Erythropoietin (EPO) = assay: In vivo renal ischemia-reperfusion: Western Blot for EPO in renal tissue; design: species or system Swiss strain mice; conditions: vs I/R, FIG. 3
Protocol: as §1, §3
The renal tissue samples were homogenised in lysis buffer (70 mM sucrose, 2 mM Hepes KOH, 220 mM Mannitol, 0.1 mM EGTA, 1 mM PMSF, 0.1 mM BSA, antiproteases cocktail (SIGMA)); subsequently, the protein concentration thereof was determined. The proteins were determined by means of the Bradford colorimetric method with a commercial reagent from BioRad.
50 μg of protein for each of the groups to be analysed were placed in each well of the 12% acrylamide gel. […]

[1] = tested on: Proximal tubular epithelial cells from rats (NRK52e); assay: In vitro cisplatin-induced damage of renal tubular cells: real-time RT-PCR of PCNA and Ki67; type: cell-based; conditions: cis+CAII group: NRK52e, cisplatin 200 μM 6 h, then 10 μg/ml CAII 16 h; vs cis; FIG. 4
Protocol: (§5) Proximal tubular epithelial cells from rats (NRK52e) were kept in culture bottles (75 cm^2), with a culture medium (DMEM) whereto 17.5 mM of glucose and 2.5 mM of glutamine were added; this medium was also supplemented with antibiotics (100 units/ml of penicillin and 100 μg/ml of streptomycin) and 10% foetal calf serum (FCS). The cells were incubated in a humidified atmosphere with 5% CO2 at 37° C.
(§6) The control cells (control) were collected when they reached confluence without any treatment.
Treatment with cisplatin (Sigma) was performed by dissolving the drug in the minimum volume of DMSO (40 μl) and diluting it in PBS at a concentration of 200 μM. After 6 hours, the medium was removed and a new medium was added, without the drug for the CIS group and with 10 μg/ml of CAII for the CIS+CAII group. The samples were collected 16 hours later. […]
as §2, with “the” for “the kidney”, “samples taken from the cell culture” for “samples”, “using” for “by means of”
The expression of the analysed genes was measured by means of real-time quantitative RT-PCR normalised with GAPDH. […]

[2] = tested on: Proximal tubular epithelial cells from rats (NRK52e); assay: In vitro cisplatin-induced damage of renal tubular cells: apoptosis evaluated by activity of caspase 3; type: cell-based; conditions: cisplatin+CAII group: NRK52e, cisplatin 200 μM 6 h, then 10 μg/ml CAII 16 h; vs cisplatin; FIG. 5
Protocol: as §5, §6
Treatment with cisplatin (Sigma) was performed by dissolving the drug in the minimum volume of DMSO (40 μl) and diluting it in PBS at a concentration of 200 μM. […]
as §4, with “Pa.). The cell culture samples were” for “Pa.). The renal tissue samples were”, “of the sample were incubated” for “of the samples were incubated”, “C. by means of fluorospectrophotometry, using” for “C. by fluorospectrophotometry, using”

[3] = I/R+AZT group: Azetazolamide 30 mg/kg intraperitoneal one day prior to I/R

Compound | regenerative response (expression of PCNA and Stathmin mRNA) (PCNA and Stathmin genes; I/R+CAII group: 45 min ischemia, 24 h reperfusion, CAII 5 mg/kg into inferior vena cava at beginning of reperfusion, vs I/R) | regeneration (PCNA and Stathmin mRNA) in undamaged tissue (PCNA and Stathmin genes; control+CAII group: no I/R, CAII 5 mg/kg intravenous 24 h prior to sample collection) | incidence of apoptosis (activity of caspase 3) (caspase 3; I/R+CAII group: CAII 5 mg/kg at beginning of reperfusion, vs I/R) | apoptosis naturally present in healthy tissue (activity of caspase 3) (caspase 3; control+CAII group: no I/R, CAII 5 mg/kg intravenous) | amount of EPO in kidney (Western Blot) (Erythropoietin (EPO); I/R+CAII group: CAII 5 mg/kg at beginning of reperfusion) | regeneration (expression of PCNA and Ki67 mRNA) [1] | apoptosis (activity of caspase 3) [2] | regenerative markers (PCNA and Stathmin mRNA) (PCNA and Stathmin genes; [3]) | amount of EPO in kidney (Western Blot) (Erythropoietin (EPO); [3])
carbonic anhydrase II [CAII] | marked increase | did not induce regeneration | drastically reduced | does not affect | marked increase | significantly increased regeneration | capable of reverting apoptosis | – | –
CC(=O)Nc1nnc(S(N)(=O)=O)s1 [azetazolamide, Azetazolamide, reference compound] | – | – | – | – | – | – | – | decrease | reduced the amount of EPO

Reference: US20130101565A1, “USE OF CARBONIC ANHYDRASE II FOR PRODUCING A DRUG” (CONSEJO SUPERIOR DE INVESTIGACIONES CIENTIFICAS (CSIC), priority 2009, published 2013)
